Test systems include CAKI-1 renal; DU-145 prostate; HCT-116 colon; IGROV1 ovarian; LOX IMVI melanoma; MDA-MB-435; NCI-H23 lung; NCI-H460 lung; NCI/ADR-RES ovarian; PC-3 prostate.
Holding throughout (assay): NCI anticancer screen, dose series, 48 h

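Dose response: 5 concentrations. Exposure: 48 h. Format: 96-well plates. Endpoint: linear interpolation; highest concentration if not reached. GI50: concentration for 50% inhibition of growth. TGI marks complete inhibition of growth.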 A value given as a limit tells only on which side of the number the result lay.

For `COc1ccc(-c2nnc(Nc3nc(O)c(C4=c5cc(F)ccc5=NC4=O)s3)o2)cc1`, the GI50 was 28.8 µM in the assay on CAKI-1 renal; 46.9 µM in the assay with DU-145 prostate; 20 µM in the assay with HCT-116 colon; 14.3 µM in the assay on IGROV1 ovarian; 40 µM in the assay on LOX IMVI melanoma; 36.2 µM in the assay on MDA-MB-435. For the same compound, the GI50 in the assay with NCI-H23 lung was 67.7 µM; in the assay on NCI-H460 lung, 34.2 µM; with NCI/ADR-RES ovarian, 49.7 µM; with PC-3 prostate, 32.4 µM. For the same compound, the TGI in the assay on CAKI-1 renal was 99.3 µM; in the assay with DU-145 prostate it was over 100 µM; in the assay with HCT-116 colon it was 42.7 µM; with IGROV1 ovarian, 51.4 µM; in the assay with LOX IMVI melanoma, over 100 µM; in the assay with MDA-MB-435 it was over 100 µM. For the same compound, the TGI in the assay with NCI-H23 lung, with NCI-H460 lung, in the assay with NCI/ADR-RES ovarian and with PC-3 prostate was over 100 µM throughout.
For the compound `CCN1C(=O)N(CC)C2C1NN=c1s/c(=C\c3cccc([N+](=O)[O-])c3)c(=O)n12` (stereo not given), the GI50 was 0.052 µM in the assay on CAKI-1 renal; 0.101 µM with DU-145 prostate; 0.0422 µM with HCT-116 colon; 0.162 µM with IGROV1 ovarian; 0.0568 µM in the assay on LOX IMVI melanoma; 0.0214 µM with MDA-MB-435. In addition, the GI50 is 0.413 µM with NCI-H23 lung, 0.0491 µM in the assay on NCI-H460 lung, 0.0443 µM with NCI/ADR-RES ovarian and 0.0853 µM with PC-3 prostate. The TGI with CAKI-1 renal was over 100 µM; in the assay on DU-145 prostate, over 100 µM; in the assay on HCT-116 colon, over 100 µM; in the assay with IGROV1 ovarian, over 100 µM; with LOX IMVI melanoma, over 100 µM; with MDA-MB-435, 0.0504 µM. Besides, the TGI in the assay on NCI-H23 lung is over 100 µM; with NCI-H460 lung it was over 100 µM; in the assay on NCI/ADR-RES ovarian, 0.703 µM; with PC-3 prostate it was over 100 µM.
Regarding `O=S(=O)(NCCO)c1cc[c]([Sb](=[O])([OH])[OH])cc1`, the GI50 with CAKI-1 renal, in the assay with DU-145 prostate, with HCT-116 colon, in the assay with IGROV1 ovarian, in the assay on LOX IMVI melanoma and in the assay on MDA-MB-435 was over 100 µM in each case. Also, the GI50 in the assay with NCI-H23 lung, in the assay on NCI-H460 lung, with NCI/ADR-RES ovarian and in the assay with PC-3 prostate was over 100 µM in each case. For the same compound, the TGI in the assay with CAKI-1 renal, in the assay on DU-145 prostate, with HCT-116 colon, with IGROV1 ovarian, in the assay with LOX IMVI melanoma and with MDA-MB-435 was over 100 µM each time. The TGI in the assay on NCI-H23 lung, in the assay with NCI-H460 lung, in the assay on NCI/ADR-RES ovarian and in the assay on PC-3 prostate was over 100 µM in each case.
Turning to `N=C(N)SCc1ccc([N+](=O)[O-])cc1[N+](=O)[O-]`, the GI50 is 4.86 µM with CAKI-1 renal; 2.25 µM in the assay on DU-145 prostate; 3.53 µM in the assay on HCT-116 colon; 4.33 µM with IGROV1 ovarian; 8.66 µM in the assay on LOX IMVI melanoma; 11.8 µM in the assay on MDA-MB-435. Also, the GI50 in the assay on NCI-H23 lung is 10.6 µM; with NCI-H460 lung it was 12.7 µM; in the assay on NCI/ADR-RES ovarian, 23 µM; in the assay with PC-3 prostate, 13.4 µM. The TGI stood at 15.8 µM in the assay with CAKI-1 renal; 9.95 µM with DU-145 prostate; 13.6 µM in the assay with HCT-116 colon; 15.3 µM in the assay on IGROV1 ovarian; 25 µM with LOX IMVI melanoma; 29.3 µM in the assay on MDA-MB-435. Further, the TGI is 36.2 µM in the assay with NCI-H23 lung, 32.7 µM with NCI-H460 lung, 89 µM in the assay on NCI/ADR-RES ovarian and 87.2 µM with PC-3 prostate.
For `CC12CCC(O)CC1=CCC1C2CCC2(C)C(c3cccnc3)=CCC12` (stereo not given), the GI50 with CAKI-1 renal was over 100 µM; in the assay on DU-145 prostate it was over 100 µM; with HCT-116 colon it was over 100 µM; in the assay with IGROV1 ovarian, over 100 µM; in the assay on LOX IMVI melanoma it was over 100 µM; in the assay on MDA-MB-435, 83.7 µM. Moreover, the GI50 in the assay with NCI-H23 lung, in the assay with NCI-H460 lung, in the assay on NCI/ADR-RES ovarian and in the assay with PC-3 prostate was over 100 µM throughout. Also, the TGI in the assay with CAKI-1 renal, with DU-145 prostate, in the assay on HCT-116 colon, in the assay with IGROV1 ovarian, in the assay with LOX IMVI melanoma and in the assay with MDA-MB-435 was over 100 µM throughout. Besides, the TGI in the assay with NCI-H23 lung, in the assay with NCI-H460 lung, in the assay on NCI/ADR-RES ovarian and in the assay on PC-3 prostate was over 100 µM throughout.
For the compound `CC/C=C\C[C@H](O)C/C=C1/C(=O)C=C[C@@H]1C/C=C\CCCC(=O)NC`, the GI50 is 1.38 µM with CAKI-1 renal; 2.73 µM in the assay on DU-145 prostate; 0.612 µM in the assay with HCT-116 colon; 2.93 µM in the assay with IGROV1 ovarian; 0.317 µM in the assay on LOX IMVI melanoma; 1.73 µM with MDA-MB-435. In addition, the GI50 was 1.82 µM in the assay on NCI-H23 lung, 1.63 µM in the assay on NCI-H460 lung, 2.5 µM in the assay with NCI/ADR-RES ovarian and 1.95 µM in the assay on PC-3 prostate. Also, the TGI in the assay on CAKI-1 renal was 4.08 µM; in the assay on DU-145 prostate, 12.7 µM; with HCT-116 colon, 2.04 µM; with IGROV1 ovarian, 10.7 µM; in the assay on LOX IMVI melanoma, 1.43 µM; in the assay with MDA-MB-435, 6.64 µM. Besides, the TGI in the assay on NCI-H23 lung came out at 4.22 µM; with NCI-H460 lung, 4.15 µM; with NCI/ADR-RES ovarian, 10.5 µM; in the assay with PC-3 prostate, 4.79 µM.
As to `COc1ccc(-c2nc(-c3nc4ccc(C(F)(F)F)cc4[nH]3)c3ccccn23)cc1`, the GI50 in the assay with CAKI-1 renal is over 100 µM; in the assay on DU-145 prostate, over 100 µM; with HCT-116 colon it was 26.1 µM; with IGROV1 ovarian, over 100 µM; with LOX IMVI melanoma, 31.3 µM; in the assay with MDA-MB-435 it was 47 µM. The GI50 is over 100 µM with NCI-H23 lung, 9.73 µM in the assay with NCI-H460 lung, 85.3 µM in the assay with NCI/ADR-RES ovarian and 4.73 µM with PC-3 prostate. Further, the TGI in the assay with CAKI-1 renal, in the assay on DU-145 prostate, in the assay with HCT-116 colon, in the assay on IGROV1 ovarian, with LOX IMVI melanoma and in the assay with MDA-MB-435 was over 100 µM each time. Further, the TGI in the assay on NCI-H23 lung, in the assay on NCI-H460 lung, with NCI/ADR-RES ovarian and in the assay on PC-3 prostate was over 100 µM throughout.

(Values after PubChem BioAssay (NCI).)
